According to patent US20240376099A1, “COMPOUNDS AND COMPOSITIONS AS INHIBITORS OF ENDOSOMAL TOLL-LIKE RECEPTORS” (Novartis AG, priority 2016, published 2024):

target: T1, TLR8 (Homo sapiens, UniProt Q9NR97); experiment: huPBMC TLR8 Antagonist IL-6 TR-FRET Assay; type: cell-based; design: Fresh blood was collected from normal human donors; endogenous in cells; host or cells: human PBMCs from fresh donor blood; details: human PBMCs stimulated with ssRNA40 1 μg/ml (DOTAP), 14-16 hrs; IL-6 TR-FRET read-out
T1 sequence (Q9NR97 27-1041): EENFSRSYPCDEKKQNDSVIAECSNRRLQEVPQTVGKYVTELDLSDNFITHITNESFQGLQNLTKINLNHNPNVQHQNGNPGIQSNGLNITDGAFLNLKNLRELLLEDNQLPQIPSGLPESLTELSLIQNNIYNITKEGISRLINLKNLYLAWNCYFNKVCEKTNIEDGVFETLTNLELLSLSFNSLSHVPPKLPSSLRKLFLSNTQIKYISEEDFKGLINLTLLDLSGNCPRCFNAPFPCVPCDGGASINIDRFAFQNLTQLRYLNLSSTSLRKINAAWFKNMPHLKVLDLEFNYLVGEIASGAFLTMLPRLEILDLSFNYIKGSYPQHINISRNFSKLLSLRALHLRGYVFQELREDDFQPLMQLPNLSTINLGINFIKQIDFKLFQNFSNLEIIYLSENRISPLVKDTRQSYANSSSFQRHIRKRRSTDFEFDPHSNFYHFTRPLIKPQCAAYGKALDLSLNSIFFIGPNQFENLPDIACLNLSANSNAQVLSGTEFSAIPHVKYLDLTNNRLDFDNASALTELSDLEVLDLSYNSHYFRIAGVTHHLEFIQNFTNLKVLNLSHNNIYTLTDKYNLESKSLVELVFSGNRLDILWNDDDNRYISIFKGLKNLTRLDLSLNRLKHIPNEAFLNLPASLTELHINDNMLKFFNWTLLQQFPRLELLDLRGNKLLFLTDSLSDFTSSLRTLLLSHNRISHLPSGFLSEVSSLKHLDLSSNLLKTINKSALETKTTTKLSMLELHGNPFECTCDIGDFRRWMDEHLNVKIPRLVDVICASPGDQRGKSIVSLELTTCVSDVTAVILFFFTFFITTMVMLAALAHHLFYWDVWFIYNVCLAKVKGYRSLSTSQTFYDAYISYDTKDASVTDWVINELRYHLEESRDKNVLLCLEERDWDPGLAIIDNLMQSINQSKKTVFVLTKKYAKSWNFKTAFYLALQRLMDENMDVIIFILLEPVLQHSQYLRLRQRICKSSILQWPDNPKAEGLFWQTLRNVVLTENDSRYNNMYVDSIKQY
In short: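 Human PBMCs from fresh donor blood (150,000 cells/well) stimulated 14–16 h at 37 °C with DOTAP-complexed ssRNA40 (final 1 μg/ml for TLR8, 10 μg/mL for TLR7) or ODN2216 (final 0.3 μM, TLR9), 0.25% DMSO, ten-point 1/3 compound dilutions. Supernatant IL-6 read by HTRF (TLR8); IFNα by IFNα2b AlphaLISA (TLR7/TLR9).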

Compound	IC50
Cc1cc(N2CCc3c(c(C)nn3CC34CCC(NC(=O)[C@@H]5COCCN5)(CC3)CC4)C2)c2cnn(C)c2n1 [Compound No. 8, (S)—N-(4-((5-(1,6-dimethyl-1H-pyrazolo[3,4-b]pyridin-4-yl)-3-methyl-4,5,6,7-tetrahydro-1H-pyrazolo[4,3-c]pyridin-1-yl)methyl)bicyclo[2.2.2]octan-1-yl)morpholine-3-carboxamide]	166 nM
Cc1cc(N2CCc3c(c(C)nn3CC34CCC(N5CCN(C)C(=O)C5)(CC3)CC4)C2)c2cnn(C)c2n1 [Compound No. 104, 4-(4-((5-(1,6-dimethyl-1H-pyrazolo[3,4-b]pyridin-4-yl)-3-methyl-4,5,6,7-tetrahydro-1H-pyrazolo[4,3-c]pyridin-1-yl)methyl)bicyclo[2.2.2]octan-1-yl)-1-methylpiperazin-2-one]	389 nM
Cc1cc(N2CCc3c(c(C)nn3CC34CCC(n5ccnc5)(CC3)CC4)C2)c2cnn(C)c2n1 [Compound No. 119, 1-((4-(1H-imidazol-1-yl)bicyclo[2.2.2]octan-1-yl)methyl)-5-(1,6-dimethyl-1H-pyrazolo[3,4-b]pyridin-4-yl)-3-methyl-4,5,6,7-tetrahydro-1H-pyrazolo[4,3-c]pyridine]	1180 nM
Cc1cc(N2CCc3c(c(C)nn3CC34CCC(NC(=O)CN5CC(F)C5)(CC3)CC4)C2)c2cnn(C)c2n1 [Compound No. 133, N-(4-((5-(1,6-dimethyl-1H-pyrazolo[3,4-b]pyridin-4-yl)-3-methyl-4,5,6,7-tetrahydro-1H-pyrazolo[4,3-c]pyridin-1-yl)methyl)bicyclo[2.2.2]octan-1-yl)-2-(3-fluoroazetidin-1-yl)acetamide]	806 nM
Cc1cc(N2CCc3c(c(C)nn3CC34CCC(NC(=O)CO)(CC3)CC4)C2)c2cnn(C)c2n1 [Compound No. 135, N-(4-((5-(1,6-dimethyl-1H-pyrazolo[3,4-b]pyridin-4-yl)-3-methyl-4,5,6,7-tetrahydro-1H-pyrazolo[4,3-c]pyridin-1-yl)methyl)bicyclo[2.2.2]octan-1-yl)-2-hydroxyacetamide]	8440 nM
[2H]C([2H])([2H])n1ncc2c(N3CCc4c(c(C)nn4CC45CCC(N)(CC4)CC5)C3)cc(C)nc21 [Compound No. 140, 4-((3-methyl-5-(6-methyl-1-(methyl-d3)-1H-pyrazolo[3,4-b]pyridin-4-yl)-4,5,6,7-tetrahydro-1H-pyrazolo[4,3-c]pyridin-1-yl)methyl)bicyclo[2.2.2]octan-1-amine]	331 nM
Cc1cc(N2CCc3c(c(C)nn3CC34CCC(NC(=O)OC(C)(C)C)(CC3)CC4)C2)c2ccncc2n1 [Compound No. 147, tert-butyl (4-((3-methyl-5-(2-methyl-1,7-naphthyridin-4-yl)-4,5,6,7-tetrahydro-1H-pyrazolo[4,3-c]pyridin-1-yl)methyl)bicyclo[2.2.2]octan-1-yl)carbamate]	> 10000 nM
Cc1nn(CC23CCC(N)(CC2)CC3)c2c1CN(c1nc(N)nc3c1cnn3C)CC2 [compound 13, 4-(1-((4-aminobicyclo[2.2.2]octan-1-yl)methyl)-3-methyl-6,7-dihydro-1H-pyrazolo[4,3-c]pyridin-5(4H)-yl)-1-methyl-1H-pyrazolo[3,4-d]pyrimidin-6-amine]	1350 nM
Cc1nc(N2CCc3c(c(C)nn3CC34CCC(N5CCCC5)(CC3)CC4)C2)c2cnn(C)c2n1 [compound 16, 1,6-dimethyl-4-(3-methyl-1-((4-(pyrrolidin-1-yl)bicyclo[2.2.2]octan-1-yl)methyl)-6,7-dihydro-1H-pyrazolo[4,3-c]pyridin-5(4H)-yl)-1H-pyrazolo[3,4-d]pyrimidine]	443 nM

Results, then the compound that gave them:

IC50	Compound
55 nM	Cc1cc(N2CCc3c(c(C)nn3CC34CCC(N)(CC3)CC4)C2)c2ccncc2n1 [Compound No. 3, 4-((3-methyl-5-(2-methyl-1,7-naphthyridin-4-yl)-4,5,6,7-tetrahydro-1H-pyrazolo[4,3-c]pyridin-1-yl)methyl)bicyclo[2.2.2]octan-1-amine]
135 nM	Cc1cc(N2CCc3c(c(C)nn3CC34CCC(NC5COC5)(CC3)CC4)C2)c2cnn(C)c2n1 [Compound No. 6, N-(4-((5-(1,6-dimethyl-1H-pyrazolo[3,4-b]pyridin-4-yl)-3-methyl-4,5,6,7-tetrahydro-1H-pyrazolo[4,3-c]pyridin-1-yl)methyl)bicyclo[2.2.2]octan-1-yl)oxetan-3-amine]
201 nM	Cc1cc(N2CCc3c(c(C)nn3CC34CCC(NC(=O)[C@H]5COCCN5)(CC3)CC4)C2)c2cnn(C)c2n1 [Compound No. 9, (R)—N-(4-((5-(1,6-dimethyl-1H-pyrazolo[3,4-b]pyridin-4-yl)-3-methyl-4,5,6,7-tetrahydro-1H-pyrazolo[4,3-c]pyridin-1-yl)methyl)bicyclo[2.2.2]octan-1-yl)morpholine-3-carboxamide]
48 nM	Cc1nc(N2CCc3c(c(C)nn3CC34CCC(N5CC6(COC6)C5)(CC3)CC4)C2)c2c(n1)c(C)nn2C [Compound No. 10, 6-(4-((3-methyl-5-(1,3,5-trimethyl-1H-pyrazolo[4,3-d]pyrimidin-7-yl)-4,5,6,7-tetrahydro-1H-pyrazolo[4,3-c]pyridin-1-yl)methyl)bicyclo[2.2.2]octan-1-yl)-2-oxa-6-azaspiro[3.3]heptane]
289 nM	Cc1nc(N2CCc3c(c(C)nn3CC34CCC(N)(CC3)CC4)C2)c2c(n1)c(C)nn2C [Compound No. 26, 4-((3-methyl-5-(1,3,5-trimethyl-1H-pyrazolo[4,3-d]pyrimidin-7-yl)-4,5,6,7-tetrahydro-1H-pyrazolo[4,3-c]pyridin-1-yl)methyl)bicyclo[2.2.2]octan-1-amine]
51 nM	Cc1cc(N2CCc3c(c(C)nn3CC34CCC(N(C)C)(CC3)CC4)C2)c2cnn(C)c2n1 [Compound No. 43, 4-((5-(1,6-dimethyl-1H-pyrazolo[3,4-b]pyridin-4-yl)-3-methyl-4,5,6,7-tetrahydro-1H-pyrazolo[4,3-c]pyridin-1-yl)methyl)-N,N-dimethylbicyclo[2.2.2]octan-1-amine]
44 nM	Cc1cc(N2CCc3c(c(C)nn3CC34CCC(N5CCN(C)CC5=O)(CC3)CC4)C2)c2cnn(C)c2n1 [Compound No. 108, 1-(4-((5-(1,6-dimethyl-1H-pyrazolo[3,4-b]pyridin-4-yl)-3-methyl-4,5,6,7-tetrahydro-1H-pyrazolo[4,3-c]pyridin-1-yl)methyl)bicyclo[2.2.2]octan-1-yl)-4-methylpiperazin-2-one]
178 nM	Cc1cc(N2CCc3c(c(C)nn3CC34CCC(NC(=O)CN5CC(O)C5)(CC3)CC4)C2)c2cnn(C)c2n1 [Compound No. 136, N-(4-((5-(1,6-dimethyl-1H-pyrazolo[3,4-b]pyridin-4-yl)-3-methyl-4,5,6,7-tetrahydro-1H-pyrazolo[4,3-c]pyridin-1-yl)methyl)bicyclo[2.2.2]octan-1-yl)-2-(3-hydroxyazetidin-1-yl)acetamide]
203 nM	Cc1nn(CC23CCC(N)(CC2)CC3)c2c1CN(c1nc(Cl)nc3cnn(C)c13)CC2 [compound 15, 4-((5-(5-chloro-1-methyl-1H-pyrazolo[4,3-d]pyrimidin-7-yl)-3-mehtyl-4,5,6,7-tetrahydro-1H-pyrazolo[4,3-c]pyridin-1-yl)methyl)bicyclo[2.2.2]octan-1-amine]
199 nM	Cc1nc(N2CCc3c(c(C)nn3CC34CCC(N5CCCC5)(CC3)CC4)C2)c2c(n1)c(C)nn2C [compound 17, 1,3,5-trimethyl-7-(3-methyl-1-((4-(pyrrolidin-1-yl)bicyclo[2.2.2]octan-1-yl)methyl)-6,7-dihydro-1H-pyrazolo[4,3-c]pyridin-5(4H)-yl)-1H-pyrazolo[4,3-d]pyrimidine]
77 nM	COCCNC12CCC(Cn3nc(C)c4c3CCN(c3nc(C)nc5c(C)nn(C)c35)C4)(CC1)CC2 [compound 18, N-(2-methoxyethyl)-4-((3-methyl-5-(1,3,5-trimethyl-1H-pyrazolo[4,3-d]pyrimidin-7-yl)-4,5,6,7-tetrahydro-1H-pyrazolo[4,3-c]pyridin-1-yl)methyl)bicyclo[2.2.2]octan-1-amine]
186 nM	Cc1nc(N2CCc3c(c(C)nn3CC34CCC(N5CCOCC5)(CC3)CC4)C2)c2cnn(C)c2n1 [compound 19, 4-(4-((5-(1,6-dimethyl-1H-pyrazolo[3,4-d]pyrimidin-4-yl)-3-methyl-4,5,6,7-tetrahydro-1H-pyrazolo[4,3-c]pyridin-1-yl)methyl)bicyclo[2.2.2]octan-1-yl)morpholine]
